Data from ChEMBL document CHEMBL2010722, “Structure-activity relationship study of beta-carboline derivatives as haspin kinase inhibitors” (Bioorg Med Chem Lett, 2012).

How the values were obtained:
[1] = molecular target: STE20-like serine/threonine-protein kinase (Homo sapiens) (UniProt Q9H2G2); assay: Inhibition of SLK at 10 uM
[2] = molecular target: Tyrosine-protein kinase ZAP-70 (Homo sapiens) (UniProt P43403); assay: Inhibition of ZAP70 at 10 uM
[3] = molecular target: cGMP-dependent protein kinase 1 (Homo sapiens) (UniProt Q13976); assay: Inhibition of PRKG1 at 10 uM
[4] = molecular target: Casein kinase II alpha'/ beta (Homo sapiens) (UniProt P67870+P19784); assay: Inhibition of CK2a2/b at 10 uM; type: protein-complex assay
[5] = molecular target: Insulin receptor (Homo sapiens) (UniProt P06213); assay: Inhibition of INSR at 10 uM
[6] = molecular target: Ribosomal protein S6 kinase alpha-2 (Homo sapiens) (UniProt Q15349); assay: Inhibition of RSK3 N-terminal at 10 uM
[7] = molecular target: Inhibitor of nuclear factor kappa-B kinase subunit beta (Homo sapiens) (UniProt O14920); assay: Inhibition of IKKb at 10 uM
[8] = system: Liver; assay: Intrinsic clearance in mouse liver microsome at 3 uM; type: ADME; details: microsomes
[9] = molecular target: SRSF protein kinase 2 (Homo sapiens) (UniProt P78362); assay: Inhibition of SRPK2 at 10 uM
[10] = molecular target: MAP kinase-activated protein kinase 3 (Homo sapiens) (UniProt Q16644); assay: Inhibition of MAPKAPK3 at 10 uM
[11] = system: ALK tyrosine kinase receptor (Homo sapiens), Q9UM73 [R1275Q]; assay: Inhibition of ALK R1275Q mutant at 10 uM
[12] = molecular target: 3-phosphoinositide-dependent protein kinase 1 (Homo sapiens) (UniProt O15530); assay: Inhibition of PDK1 at 10 uM
[13] = molecular target: Maternal embryonic leucine zipper kinase (Homo sapiens) (UniProt Q14680); assay: Inhibition of MELK at 10 uM
[14] = molecular target: Ephrin type-A receptor 8 (Homo sapiens) (UniProt P29322); assay: Inhibition of EPHA8 at 10 uM
[15] = molecular target: Serine/threonine-protein kinase BRSK1 (Homo sapiens) (UniProt Q8TDC3); assay: Inhibition of BRSK1 at 10 uM
[16] = system: Liver; assay: Half life in mouse liver microsome at 3 uM; type: ADME; details: microsomes
[17] = molecular target: Protein kinase C alpha type (Homo sapiens) (UniProt P17252); assay: Inhibition of PKCalpha at 10 uM
[18] = molecular target: Dual specificity tyrosine-phosphorylation-regulated kinase 1B (Homo sapiens) (UniProt Q9Y463); assay: Inhibition of DYRK1B at 10 uM
[19] = molecular target: Protein kinase C beta type (Homo sapiens) (UniProt P05771); assay: Inhibition of PKCbeta2 at 10 uM
[20] = molecular target: Mitogen-activated protein kinase kinase kinase 9 (Homo sapiens) (UniProt P80192); assay: Inhibition of MLK1 at 10 uM
[21] = molecular target: High affinity nerve growth factor receptor (Homo sapiens) (UniProt P04629); assay: Inhibition of TRKA at 10 uM
[22] = molecular target: Protein kinase C iota type (Homo sapiens) (UniProt P41743); assay: Inhibition of PKCi at 10 uM
[23] = molecular target: Serine/threonine-protein kinase PAK 2 (Homo sapiens) (UniProt Q13177); assay: Inhibition of PAK2 at 10 uM
[24] = molecular target: Casein kinase I isoform gamma-2 (Homo sapiens) (UniProt P78368); assay: Inhibition of CK1g2 at 10 uM
[25] = molecular target: NPM/ALK (Nucleophosmin/ALK tyrosine kinase receptor) (Homo sapiens) (UniProt Q9UM73+P06748); assay: Inhibition of NPM1-ALK at 10 uM; type: protein-complex assay
[26] = molecular target: Muscle, skeletal receptor tyrosine-protein kinase (Homo sapiens) (UniProt O15146); assay: Inhibition of MUSK at 10 uM
[27] = molecular target: Ribosomal protein S6 kinase alpha-1 (Homo sapiens) (UniProt Q15418); assay: Inhibition of RSK1 N-terminal at 10 uM
[28] = molecular target: Serine/threonine-protein kinase PLK1 (Homo sapiens) (UniProt P53350); assay: Inhibition of PLK1 at 10 uM
[29] = system: ALK tyrosine kinase receptor (Homo sapiens), Q9UM73 [F1174L]; assay: Inhibition of ALK F1174L mutant at 10 uM
[30] = molecular target: TAK1/TAB1 (Homo sapiens) (UniProt Q15750+O43318); assay: Inhibition of TAK1-TAB1 at 10 uM; type: protein-complex assay
[31] = system: Mast/stem cell growth factor receptor Kit (Homo sapiens), P10721 [V560G]; assay: Inhibition of KIT V560G mutant at 10 uM
[32] = molecular target: Proto-oncogene tyrosine-protein kinase ROS (Homo sapiens) (UniProt P08922); assay: Inhibition of ROS at 10 uM
[33] = molecular target: SRSF protein kinase 1 (Homo sapiens) (UniProt Q96SB4); assay: Inhibition of SRPK1 at 10 uM
[34] = molecular target: Serine/threonine-protein kinase MRCK beta (Homo sapiens) (UniProt Q9Y5S2); assay: Inhibition of MRCKb at 10 uM
[35] = molecular target: Ephrin type-A receptor 4 (Homo sapiens) (UniProt P54764); assay: Inhibition of EPHA4 at 10 uM
[36] = molecular target: CDK9/cyclin T1 (Homo sapiens) (UniProt O60563+P50750); assay: Inhibition of CDK9-CycT1 at 10 uM; type: protein-complex assay
[37] = molecular target: Ephrin type-A receptor 7 (Homo sapiens) (UniProt Q15375); assay: Inhibition of EPHA7 at 10 uM
[38] = molecular target: Serine/threonine-protein kinase Chk1 (Homo sapiens) (UniProt O14757); assay: Inhibition of CHK1 at 10 uM
[39] = molecular target: Calcium/calmodulin-dependent protein kinase type 1 (Homo sapiens) (UniProt Q14012); assay: Inhibition of CaMK1alpha at 10 uM
[40] = system: Tyrosine-protein kinase ABL1 (Homo sapiens), P00519 [E255K]; assay: Inhibition of ABL E255K mutant at 10 uM
[41] = molecular target: MAP/microtubule affinity-regulating kinase 4 (Homo sapiens) (UniProt Q96L34); assay: Inhibition of MARK4 at 10 uM
[42] = molecular target: LKB1-STRAD-MO25 complex (Homo sapiens) (UniProt Q15831+Q7RTN6+Q9Y376); assay: Inhibition of LKB1-MO25a-STRADa at 10 uM; type: protein-complex assay
[43] = molecular target: Casein kinase II alpha/beta (Homo sapiens) (UniProt P67870+P68400); assay: Inhibition of CK2a1/b at 10 uM; type: protein-complex assay
[44] = molecular target: Tyrosine-protein kinase SYK (Homo sapiens) (UniProt P43405); assay: Inhibition of SYK at 10 uM
[45] = molecular target: cAMP-dependent protein kinase catalytic subunit alpha (Homo sapiens) (UniProt P17612); assay: Inhibition of PKACa at 10 uM
[46] = molecular target: Mitogen-activated protein kinase 1 (Homo sapiens) (UniProt P28482); assay: Inhibition of Erk2 at 10 uM

Sequence of Tyrosine-protein kinase ABL1 (Homo sapiens), P00519 [E255K] (P00519 whole entry E255K): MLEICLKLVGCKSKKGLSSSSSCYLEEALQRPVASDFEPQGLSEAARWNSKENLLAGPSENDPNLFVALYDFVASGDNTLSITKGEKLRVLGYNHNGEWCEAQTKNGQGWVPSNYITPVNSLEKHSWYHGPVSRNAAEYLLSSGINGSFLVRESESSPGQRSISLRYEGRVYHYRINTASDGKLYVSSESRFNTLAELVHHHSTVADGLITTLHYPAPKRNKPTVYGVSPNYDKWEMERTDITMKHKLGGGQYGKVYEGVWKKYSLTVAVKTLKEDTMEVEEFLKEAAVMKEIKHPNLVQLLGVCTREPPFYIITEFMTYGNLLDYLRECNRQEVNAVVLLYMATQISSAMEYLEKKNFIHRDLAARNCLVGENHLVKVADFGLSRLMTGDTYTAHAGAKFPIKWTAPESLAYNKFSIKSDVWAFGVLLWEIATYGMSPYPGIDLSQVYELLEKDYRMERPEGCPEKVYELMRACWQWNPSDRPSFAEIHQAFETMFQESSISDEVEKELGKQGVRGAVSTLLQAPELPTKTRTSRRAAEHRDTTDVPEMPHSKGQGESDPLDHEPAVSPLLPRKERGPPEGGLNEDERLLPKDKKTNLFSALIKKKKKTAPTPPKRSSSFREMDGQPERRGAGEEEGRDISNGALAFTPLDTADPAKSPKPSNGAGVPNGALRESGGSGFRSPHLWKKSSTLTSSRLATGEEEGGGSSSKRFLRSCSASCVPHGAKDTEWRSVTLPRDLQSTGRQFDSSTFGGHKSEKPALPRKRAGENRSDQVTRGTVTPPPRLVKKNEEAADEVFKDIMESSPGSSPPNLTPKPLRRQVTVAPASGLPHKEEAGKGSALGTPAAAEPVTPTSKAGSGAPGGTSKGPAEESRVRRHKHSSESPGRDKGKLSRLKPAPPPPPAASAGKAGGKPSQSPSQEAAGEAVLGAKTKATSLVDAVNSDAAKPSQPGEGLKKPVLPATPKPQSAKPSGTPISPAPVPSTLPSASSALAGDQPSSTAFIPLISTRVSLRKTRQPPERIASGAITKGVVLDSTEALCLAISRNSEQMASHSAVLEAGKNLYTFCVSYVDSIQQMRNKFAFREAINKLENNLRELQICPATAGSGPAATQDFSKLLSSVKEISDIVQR
Sequence of Casein kinase I isoform gamma-2 (Homo sapiens) (P78368 whole entry, looked up, canonical isoform): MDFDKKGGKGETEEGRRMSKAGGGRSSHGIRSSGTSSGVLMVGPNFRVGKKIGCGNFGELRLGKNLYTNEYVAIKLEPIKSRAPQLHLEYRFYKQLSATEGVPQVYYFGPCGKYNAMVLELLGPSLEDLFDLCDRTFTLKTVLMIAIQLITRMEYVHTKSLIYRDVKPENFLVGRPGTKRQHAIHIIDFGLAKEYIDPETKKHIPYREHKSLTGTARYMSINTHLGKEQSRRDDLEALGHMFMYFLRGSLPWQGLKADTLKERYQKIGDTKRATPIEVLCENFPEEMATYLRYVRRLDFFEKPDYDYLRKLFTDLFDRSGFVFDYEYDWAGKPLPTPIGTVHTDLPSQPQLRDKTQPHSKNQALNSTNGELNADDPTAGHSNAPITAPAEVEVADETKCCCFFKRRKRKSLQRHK
Sequence of Mast/stem cell growth factor receptor Kit (Homo sapiens), P10721 [V560G] (P10721 whole entry V560G): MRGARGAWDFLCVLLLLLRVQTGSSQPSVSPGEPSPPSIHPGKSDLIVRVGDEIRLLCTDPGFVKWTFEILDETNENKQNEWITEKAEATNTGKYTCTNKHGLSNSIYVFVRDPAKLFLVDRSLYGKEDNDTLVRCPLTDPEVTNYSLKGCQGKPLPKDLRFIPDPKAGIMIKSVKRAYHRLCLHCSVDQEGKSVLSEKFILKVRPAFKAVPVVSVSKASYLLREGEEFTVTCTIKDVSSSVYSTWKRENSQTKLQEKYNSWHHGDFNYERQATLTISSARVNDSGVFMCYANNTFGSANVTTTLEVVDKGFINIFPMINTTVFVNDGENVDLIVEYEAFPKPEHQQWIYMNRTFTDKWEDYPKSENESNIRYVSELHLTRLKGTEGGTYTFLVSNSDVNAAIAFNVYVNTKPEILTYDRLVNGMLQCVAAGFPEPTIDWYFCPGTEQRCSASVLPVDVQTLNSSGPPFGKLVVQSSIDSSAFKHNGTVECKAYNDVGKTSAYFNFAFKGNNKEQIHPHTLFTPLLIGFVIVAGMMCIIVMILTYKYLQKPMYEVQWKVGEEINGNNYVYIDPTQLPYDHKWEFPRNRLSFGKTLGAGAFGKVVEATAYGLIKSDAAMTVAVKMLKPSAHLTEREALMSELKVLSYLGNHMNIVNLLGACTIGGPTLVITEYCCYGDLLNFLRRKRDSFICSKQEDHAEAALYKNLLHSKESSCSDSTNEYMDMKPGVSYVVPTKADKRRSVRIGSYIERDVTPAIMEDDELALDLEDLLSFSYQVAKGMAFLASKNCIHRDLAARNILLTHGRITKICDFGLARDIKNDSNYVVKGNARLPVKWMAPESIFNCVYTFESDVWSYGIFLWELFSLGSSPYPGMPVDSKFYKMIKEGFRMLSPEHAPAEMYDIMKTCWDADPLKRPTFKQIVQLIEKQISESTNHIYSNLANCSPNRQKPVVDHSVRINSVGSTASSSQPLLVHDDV
Sequence of SRSF protein kinase 1 (Homo sapiens) (Q96SB4 whole entry): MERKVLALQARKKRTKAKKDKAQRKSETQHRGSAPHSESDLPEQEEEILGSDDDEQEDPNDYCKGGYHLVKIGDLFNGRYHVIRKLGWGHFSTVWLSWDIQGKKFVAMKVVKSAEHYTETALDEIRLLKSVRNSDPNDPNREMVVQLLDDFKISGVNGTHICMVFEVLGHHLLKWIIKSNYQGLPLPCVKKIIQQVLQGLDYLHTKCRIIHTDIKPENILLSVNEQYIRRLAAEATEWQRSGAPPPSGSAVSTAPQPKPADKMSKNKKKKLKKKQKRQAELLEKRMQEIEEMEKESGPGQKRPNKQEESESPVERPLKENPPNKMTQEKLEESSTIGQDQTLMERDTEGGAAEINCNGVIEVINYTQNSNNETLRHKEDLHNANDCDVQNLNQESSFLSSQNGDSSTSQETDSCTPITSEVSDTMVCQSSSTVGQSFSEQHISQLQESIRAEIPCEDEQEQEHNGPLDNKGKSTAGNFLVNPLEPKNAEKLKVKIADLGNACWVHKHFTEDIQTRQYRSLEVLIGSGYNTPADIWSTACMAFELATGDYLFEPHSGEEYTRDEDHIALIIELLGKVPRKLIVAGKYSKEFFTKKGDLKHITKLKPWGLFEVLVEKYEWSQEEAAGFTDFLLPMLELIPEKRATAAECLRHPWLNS
Sequence of Serine/threonine-protein kinase Chk1 (Homo sapiens) (O14757 whole entry): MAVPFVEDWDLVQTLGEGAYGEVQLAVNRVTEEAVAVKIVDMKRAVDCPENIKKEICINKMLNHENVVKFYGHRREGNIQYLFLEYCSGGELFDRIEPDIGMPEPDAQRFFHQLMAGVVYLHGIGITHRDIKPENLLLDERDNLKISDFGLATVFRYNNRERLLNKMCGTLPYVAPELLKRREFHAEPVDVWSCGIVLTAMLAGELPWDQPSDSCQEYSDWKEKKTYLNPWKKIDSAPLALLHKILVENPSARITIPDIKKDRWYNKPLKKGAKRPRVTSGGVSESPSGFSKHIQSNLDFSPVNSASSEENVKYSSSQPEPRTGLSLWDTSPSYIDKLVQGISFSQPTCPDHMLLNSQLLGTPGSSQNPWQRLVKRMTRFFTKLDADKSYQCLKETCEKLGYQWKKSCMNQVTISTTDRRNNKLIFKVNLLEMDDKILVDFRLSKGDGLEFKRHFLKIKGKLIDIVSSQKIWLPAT
Sequence of SRSF protein kinase 2 (Homo sapiens) (P78362 whole entry, looked up): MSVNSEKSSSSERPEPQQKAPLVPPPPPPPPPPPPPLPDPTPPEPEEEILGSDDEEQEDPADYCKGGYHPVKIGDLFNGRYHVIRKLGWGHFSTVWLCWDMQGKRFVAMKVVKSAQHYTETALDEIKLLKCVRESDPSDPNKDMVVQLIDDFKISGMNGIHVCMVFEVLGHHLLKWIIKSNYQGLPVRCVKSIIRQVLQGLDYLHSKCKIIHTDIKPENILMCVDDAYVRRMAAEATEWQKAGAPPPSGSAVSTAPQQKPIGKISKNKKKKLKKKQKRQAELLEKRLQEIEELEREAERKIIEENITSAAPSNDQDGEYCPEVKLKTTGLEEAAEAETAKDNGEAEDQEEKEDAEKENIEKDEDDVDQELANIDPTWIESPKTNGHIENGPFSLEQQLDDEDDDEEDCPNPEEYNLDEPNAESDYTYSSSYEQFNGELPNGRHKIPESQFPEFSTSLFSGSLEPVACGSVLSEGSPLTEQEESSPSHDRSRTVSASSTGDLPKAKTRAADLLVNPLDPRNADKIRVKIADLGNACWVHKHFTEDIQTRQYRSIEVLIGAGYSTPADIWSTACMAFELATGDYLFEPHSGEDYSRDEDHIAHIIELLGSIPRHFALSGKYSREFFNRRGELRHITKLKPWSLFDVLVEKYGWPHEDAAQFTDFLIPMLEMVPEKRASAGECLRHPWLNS
Sequence of Casein kinase II alpha'/ beta (Homo sapiens) (P19784 whole entry partner): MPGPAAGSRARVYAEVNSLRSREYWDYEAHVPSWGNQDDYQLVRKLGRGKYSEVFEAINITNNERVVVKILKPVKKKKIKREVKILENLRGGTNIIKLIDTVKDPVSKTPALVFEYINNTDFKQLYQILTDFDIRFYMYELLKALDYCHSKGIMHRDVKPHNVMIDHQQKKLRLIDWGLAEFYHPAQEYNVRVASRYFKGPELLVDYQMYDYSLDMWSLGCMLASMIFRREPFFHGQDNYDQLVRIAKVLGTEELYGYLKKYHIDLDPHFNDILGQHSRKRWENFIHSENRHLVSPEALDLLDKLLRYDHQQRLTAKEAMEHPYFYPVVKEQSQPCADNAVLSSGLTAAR
Sequence of Casein kinase II alpha'/ beta (Homo sapiens) (P67870 2-215 limits assumed): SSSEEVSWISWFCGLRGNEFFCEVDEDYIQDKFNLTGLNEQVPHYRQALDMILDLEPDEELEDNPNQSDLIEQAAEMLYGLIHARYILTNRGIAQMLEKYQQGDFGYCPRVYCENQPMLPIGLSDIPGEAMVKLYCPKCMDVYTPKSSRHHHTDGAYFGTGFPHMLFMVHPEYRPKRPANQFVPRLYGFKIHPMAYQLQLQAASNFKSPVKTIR

## COc1ccc2c3ccnc(C(F)(F)F)c3n(CCCCN)c2c1
[1]
  inhibition: 20%
[2]
  inhibition: 3%
[3]
  inhibition: 80%
[4]
  inhibition: 1%
[5]
  inhibition: 0%
[6]
  inhibition: 36%
[7]
  inhibition: 30%
[8]
  CLH: 3.8 µL/min/mg
[9]
  inhibition: 0%
[10]
  inhibition: 1%
[11]
  inhibition: 6%
[12]
  inhibition: 0%
[13]
  inhibition: 78%
[14]
  inhibition: 0%
[15]
  inhibition: 34%
[16]
  t1/2: 5.68 h
[17]
  inhibition: 26%
[18]
  inhibition: 98%
[19]
  inhibition: 28%
[20]
  inhibition: 0%
[21]
  inhibition: 8%
[22]
  inhibition: 9%
[23]
  inhibition: 13%
[24]
  inhibition: 60%
[25]
  inhibition: 4%
[26]
  inhibition: 42%
[27]
  inhibition: 27%
[28]
  inhibition: 0%
[29]
  inhibition: 9%
[30]
  inhibition: 12%
[31]
  inhibition: 16%
[32]
  inhibition: 44%
[33]
  inhibition: 7%
[34]
  inhibition: 27%
[35]
  inhibition: 0%
[36]
  inhibition: 79%
[37]
  inhibition: 2%
[38]
  inhibition: 25%
[39]
  inhibition: 14%
[40]
  inhibition: 0%
[41]
  inhibition: 50%
[42]
  inhibition: 21%
[43]
  inhibition: 0%
[44]
  inhibition: 0%
[45]
  inhibition: 28%
[46]
  inhibition: 7%
